Reference: ChEMBL document CHEMBL2034855, “(18)F-labeled phenyldiazenyl benzothiazole for in vivo imaging of neurofibrillary tangles in Alzheimer's disease brains” (ACS Med Chem Lett, 2012)
Activity calls are given as the source filed them. The rule behind the calls is not given here.

What was measured:
[1] = system: Brain; test: Biodistribution in mouse brain at 64.5 kBq, iv measured 2 mins post injection by gamma counting; type: ADME, organism-based; settings: in vivo
[2] = system: Brain; test: Biodistribution in mouse brain at 64.5 kBq, iv measured 60 mins post injection by gamma counting; type: ADME, organism-based; settings: in vivo, 1 h
[3] = Octanol-phosphate buffer partition coefficient, log P of the compound at 0.37 MBq after 10 mins by gamma counting; type: physicochemical
[4] = molecular target: T1, Microtubule-associated protein tau (Homo sapiens, UniProt P10636); test: Displacement of Thioflavin S from recombinant human tau expressed in Escherichia coli after 30 mins by fluorescence assay
T1 sequence (P10636 whole entry): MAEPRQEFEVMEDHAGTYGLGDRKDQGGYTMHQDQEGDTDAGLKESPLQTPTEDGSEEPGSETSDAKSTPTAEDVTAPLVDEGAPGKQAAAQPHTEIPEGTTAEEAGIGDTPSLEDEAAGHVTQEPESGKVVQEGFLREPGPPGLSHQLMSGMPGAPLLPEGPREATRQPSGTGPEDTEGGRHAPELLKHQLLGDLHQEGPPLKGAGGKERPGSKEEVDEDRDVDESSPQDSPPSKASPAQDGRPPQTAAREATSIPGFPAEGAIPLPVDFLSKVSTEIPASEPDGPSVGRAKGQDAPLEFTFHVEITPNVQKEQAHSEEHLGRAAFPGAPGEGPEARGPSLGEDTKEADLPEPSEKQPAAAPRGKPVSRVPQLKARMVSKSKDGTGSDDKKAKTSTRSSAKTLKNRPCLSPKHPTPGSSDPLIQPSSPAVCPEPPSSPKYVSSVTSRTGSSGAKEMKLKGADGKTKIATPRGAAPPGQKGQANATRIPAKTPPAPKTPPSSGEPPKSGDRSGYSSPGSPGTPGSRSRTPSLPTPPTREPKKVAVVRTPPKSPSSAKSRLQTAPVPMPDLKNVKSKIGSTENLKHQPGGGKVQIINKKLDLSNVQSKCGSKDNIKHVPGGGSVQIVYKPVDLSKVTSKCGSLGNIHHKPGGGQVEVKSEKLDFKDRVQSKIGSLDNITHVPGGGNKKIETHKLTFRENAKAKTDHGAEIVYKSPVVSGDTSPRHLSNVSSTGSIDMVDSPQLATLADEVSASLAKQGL

[5] = Displacement of Thioflavin S from amyloid beta (1 to 42) aggregates after 30 mins by fluorescence assay
[6] = species on record: Homo sapiens; test: Selectivity ratio Ki for amyloid beta (1 to 42) aggregates to Ki for recombinant human tau
[7] = molecular target: T1, Microtubule-associated protein tau; test: Binding affinity to recombinant human tau expressed in Escherichia coli assessed per nanomolar of protein after 30 mins by fluorescence assay; settings: tested as the 18F-labelled form
[8] = Binding affinity to amyloid beta (1 to 42) aggregates assessed per nanomolar of protein after 30 mins by fluorescence assay; settings: tested as the 18F-labelled form
[9] = molecular target: T1, Microtubule-associated protein tau; test: Binding affinity to tau protein in human alzheimer's disease patient brain white matter at 92.5 kBq after 2 hrs by immunohistological staining; type: tissue-based; settings: tested as the 18F-labelled form
[10] = molecular target: Amyloid-beta precursor protein (Homo sapiens) (UniProt P05067); test: Binding affinity to amyloid beta (1 to 42) aggregates in human alzheimer's disease patient brain white matter at 92.5 kBq after 2 hrs by immunohistological staining; type: tissue-based; settings: tested as the 18F-labelled form
Amyloid-beta precursor protein (Homo sapiens), sequence (P05067 whole entry): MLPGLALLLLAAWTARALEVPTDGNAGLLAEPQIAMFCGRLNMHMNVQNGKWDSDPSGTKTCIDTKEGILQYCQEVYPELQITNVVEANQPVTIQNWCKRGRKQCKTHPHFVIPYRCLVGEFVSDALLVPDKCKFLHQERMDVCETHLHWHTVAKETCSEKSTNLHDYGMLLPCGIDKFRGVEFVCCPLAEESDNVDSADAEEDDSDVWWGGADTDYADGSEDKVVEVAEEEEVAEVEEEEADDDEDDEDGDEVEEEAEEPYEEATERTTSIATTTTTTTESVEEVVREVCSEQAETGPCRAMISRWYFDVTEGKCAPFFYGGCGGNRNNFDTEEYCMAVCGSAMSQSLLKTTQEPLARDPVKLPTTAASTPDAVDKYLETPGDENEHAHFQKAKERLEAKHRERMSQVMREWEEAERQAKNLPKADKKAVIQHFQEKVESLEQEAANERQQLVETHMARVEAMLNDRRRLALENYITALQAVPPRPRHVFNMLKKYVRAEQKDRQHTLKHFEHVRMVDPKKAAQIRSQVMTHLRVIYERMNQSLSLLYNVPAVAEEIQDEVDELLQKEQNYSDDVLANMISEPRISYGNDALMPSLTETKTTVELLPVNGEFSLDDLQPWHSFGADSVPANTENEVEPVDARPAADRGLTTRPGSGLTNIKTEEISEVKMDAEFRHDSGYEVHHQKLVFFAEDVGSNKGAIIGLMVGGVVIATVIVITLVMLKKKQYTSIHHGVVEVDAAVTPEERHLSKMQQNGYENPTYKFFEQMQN

[11] = species on record: Homo sapiens; test: Binding affinity to neurofibrillary tangles in human alzheimer's disease patient brain at 92.5 kBq after 30 mins by immunohistological staining
[12] = species on record: Homo sapiens; test: Binding affinity to senile plaques in human alzheimer's disease patient brain at 92.5 kBq after 30 mins by immunohistological staining
[13] = molecular target: T1, Microtubule-associated protein tau; test: Binding affinity to recombinant human tau expressed in Escherichia coli after 30 mins by fluorescence assay
[14] = Binding affinity to amyloid beta (1 to 42) aggregates after 30 mins by fluorescence assay
[15] = system: Brain; test: Drug uptake in normal human brain at 92.5 kBq after 2 hrs by […]; type: ADME, tissue-based
[16] = system: Blood; test: Biodistribution in mouse blood at 64.5 kBq, iv measured 2 mins post injection by gamma counting; type: ADME, organism-based; settings: in vivo
[17] = system: Liver; test: Biodistribution in mouse liver at 64.5 kBq, iv measured 2 mins post injection by gamma counting; type: ADME, organism-based; settings: in vivo
[18] = system: Kidney; test: Biodistribution in mouse kidney at 64.5 kBq, iv measured 2 mins post injection by gamma counting; type: ADME, organism-based; settings: in vivo
[19] = system: Intestine; test: Biodistribution in mouse intestine at 64.5 kBq, iv measured 2 mins post injection by gamma counting; type: ADME, organism-based; settings: in vivo
[20] = system: Spleen; test: Biodistribution in mouse spleen at 64.5 kBq, iv measured 2 mins post injection by gamma counting; type: ADME, organism-based; settings: in vivo
[21] = system: Pancreas; test: Biodistribution in mouse pancreas at 64.5 kBq, iv measured 2 mins post injection by gamma counting; type: ADME, organism-based; settings: in vivo
[22] = system: Heart; test: Biodistribution in mouse heart at 64.5 kBq, iv measured 2 mins post injection by gamma counting; type: ADME, organism-based; settings: in vivo
[23] = system: Lung; test: Biodistribution in mouse lung at 64.5 kBq, iv measured 2 mins post injection by gamma counting; type: ADME, organism-based; settings: in vivo
[24] = system: Stomach; test: Biodistribution in mouse stomach at 64.5 kBq, iv measured 2 mins post injection by gamma counting; type: ADME, organism-based; settings: in vivo
[25] = system: Bone; test: Biodistribution in mouse bone at 64.5 kBq, iv measured 2 mins post injection by gamma counting; type: ADME, organism-based, Bone element; settings: in vivo
[26] = system: Blood; test: Biodistribution in mouse blood at 64.5 kBq, iv measured 10 mins post injection by gamma counting; type: ADME, organism-based; settings: in vivo
[27] = system: Liver; test: Biodistribution in mouse liver at 64.5 kBq, iv measured 10 mins post injection by gamma counting; type: ADME, organism-based; settings: in vivo
[28] = system: Kidney; test: Biodistribution in mouse kidney at 64.5 kBq, iv measured 10 mins post injection by gamma counting; type: ADME, organism-based; settings: in vivo
[29] = system: Intestine; test: Biodistribution in mouse intestine at 64.5 kBq, iv measured 10 mins post injection by gamma counting; type: ADME, organism-based; settings: in vivo
[30] = system: Spleen; test: Biodistribution in mouse spleen at 64.5 kBq, iv measured 10 mins post injection by gamma counting; type: ADME, organism-based; settings: in vivo
[31] = system: Pancreas; test: Biodistribution in mouse pancreas at 64.5 kBq, iv measured 10 mins post injection by gamma counting; type: ADME, organism-based; settings: in vivo
[32] = system: Heart; test: Biodistribution in mouse heart at 64.5 kBq, iv measured 10 mins post injection by gamma counting; type: ADME, organism-based; settings: in vivo
[33] = system: Lung; test: Biodistribution in mouse lung at 64.5 kBq, iv measured 10 mins post injection by gamma counting; type: ADME, organism-based; settings: in vivo
[34] = system: Stomach; test: Biodistribution in mouse stomach at 64.5 kBq, iv measured 10 mins post injection by gamma counting; type: ADME, organism-based; settings: in vivo
[35] = system: Brain; test: Biodistribution in mouse brain at 64.5 kBq, iv measured 10 mins post injection by gamma counting; type: ADME, organism-based; settings: in vivo
[36] = system: Bone; test: Biodistribution in mouse bone at 64.5 kBq, iv measured 10 mins post injection by gamma counting; type: ADME, organism-based, Bone element; settings: in vivo
[37] = system: Blood; test: Biodistribution in mouse blood at 64.5 kBq, iv measured 30 mins post injection by gamma counting; type: ADME, organism-based; settings: in vivo, 0.5 h
[38] = system: Liver; test: Biodistribution in mouse liver at 64.5 kBq, iv measured 30 mins post injection by gamma counting; type: ADME, organism-based; settings: in vivo, 0.5 h
[39] = system: Kidney; test: Biodistribution in mouse kidney at 64.5 kBq, iv measured 30 mins post injection by gamma counting; type: ADME, organism-based; settings: in vivo, 0.5 h
[40] = system: Intestine; test: Biodistribution in mouse intestine at 64.5 kBq, iv measured 30 mins post injection by gamma counting; type: ADME, organism-based; settings: in vivo, 0.5 h
[41] = system: Spleen; test: Biodistribution in mouse spleen at 64.5 kBq, iv measured 30 mins post injection by gamma counting; type: ADME, organism-based; settings: in vivo, 0.5 h
[42] = system: Pancreas; test: Biodistribution in mouse pancreas at 64.5 kBq, iv measured 30 mins post injection by gamma counting; type: ADME, organism-based; settings: in vivo, 0.5 h
[43] = system: Heart; test: Biodistribution in mouse heart at 64.5 kBq, iv measured 30 mins post injection by gamma counting; type: ADME, organism-based; settings: in vivo, 0.5 h
[44] = system: Lung; test: Biodistribution in mouse lung at 64.5 kBq, iv measured 30 mins post injection by gamma counting; type: ADME, organism-based; settings: in vivo, 0.5 h
[45] = system: Stomach; test: Biodistribution in mouse stomach at 64.5 kBq, iv measured 30 mins post injection by gamma counting; type: ADME, organism-based; settings: in vivo, 0.5 h
[46] = system: Brain; test: Biodistribution in mouse brain at 64.5 kBq, iv measured 30 mins post injection by gamma counting; type: ADME, organism-based; settings: in vivo, 0.5 h
[47] = system: Bone; test: Biodistribution in mouse bone at 64.5 kBq, iv measured 30 mins post injection by gamma counting; type: ADME, organism-based, Bone element; settings: in vivo, 0.5 h
[48] = system: Blood; test: Biodistribution in mouse blood at 64.5 kBq, iv measured 60 mins post injection by gamma counting; type: ADME, organism-based; settings: in vivo, 1 h
[49] = system: Liver; test: Biodistribution in mouse liver at 64.5 kBq, iv measured 60 mins post injection by gamma counting; type: ADME, organism-based; settings: in vivo, 1 h
[50] = system: Kidney; test: Biodistribution in mouse kidney at 64.5 kBq, iv measured 60 mins post injection by gamma counting; type: ADME, organism-based; settings: in vivo, 1 h
[51] = system: Intestine; test: Biodistribution in mouse intestine at 64.5 kBq, iv measured 60 mins post injection by gamma counting; type: ADME, organism-based; settings: in vivo, 1 h
[52] = system: Spleen; test: Biodistribution in mouse spleen at 64.5 kBq, iv measured 60 mins post injection by gamma counting; type: ADME, organism-based; settings: in vivo, 1 h
[53] = system: Pancreas; test: Biodistribution in mouse pancreas at 64.5 kBq, iv measured 60 mins post injection by gamma counting; type: ADME, organism-based; settings: in vivo, 1 h
[54] = system: Heart; test: Biodistribution in mouse heart at 64.5 kBq, iv measured 60 mins post injection by gamma counting; type: ADME, organism-based; settings: in vivo, 1 h
[55] = system: Lung; test: Biodistribution in mouse lung at 64.5 kBq, iv measured 60 mins post injection by gamma counting; type: ADME, organism-based; settings: in vivo, 1 h
[56] = system: Stomach; test: Biodistribution in mouse stomach at 64.5 kBq, iv measured 60 mins post injection by gamma counting; type: ADME, organism-based; settings: in vivo, 1 h
[57] = system: Bone; test: Biodistribution in mouse bone at 64.5 kBq, iv measured 60 mins post injection by gamma counting; type: ADME, organism-based, Bone element; settings: in vivo, 1 h

Structure (SMILES): CN(C)c1ccc(/N=N/c2nc3ccc([125I])cc3s2)cc1
- Drug uptake [1]: 0.94 % ID/g
- Drug uptake [2]: 2.89 % ID/g
- logP at 10 min [3]: 3.84

Structure (SMILES): CN(C)c1ccc(/N=N/c2nc3ccc(OCCOCCOCCF)cc3s2)cc1
- IC50 [4]: 256 nM
- Ki [4]: 13 nM
- IC50 [5]: 47.3 nM
- Ki [5]: 20 nM
- Ratio Ki [6]: 1.54
- Bmax [7]: 45.8 pmol
- Bmax [8]: 38.9 pmol
- Activity [9]: Active
- Activity [10]: Active
- Activity [11]: Active
- Activity [12]: Active

Structure (SMILES): CN(C)c1ccc(/N=N/c2nc3ccc(I)cc3s2)cc1
- Ki [4]: 0.48 nM
- Ratio Ki [6]: 17.2

Structure (SMILES): CN(C)c1ccc(/N=N/c2nc3ccc(OCCOCCOCC[18F])cc3s2)cc1
- Kd [13]: 44.8 nM
- Kd [14]: 45.4 nM
- Drug uptake [15]: Not Active
- Drug uptake [16]: 3.04 % ID/g
- Drug uptake [17]: 20.2 % ID/g
- Drug uptake [18]: 13.9 % ID/g
- Drug uptake [19]: 2.94 % ID/g
- Drug uptake [20]: 3.47 % ID/g
- Drug uptake [21]: 5.41 % ID/g
- Drug uptake [22]: 7.45 % ID/g
- Drug uptake [23]: 13.5 % ID/g
- Drug uptake [24]: 1.11 %ID
- Drug uptake [1]: 4.28 % ID/g
- Drug uptake [25]: 1.88 % ID/g
- Drug uptake [26]: 1.83 % ID/g
- Drug uptake [27]: 19.3 % ID/g
- Drug uptake [28]: 7.67 % ID/g
- Drug uptake [29]: 4.99 % ID/g
- Drug uptake [30]: 3.41 % ID/g
- Drug uptake [31]: 4.01 % ID/g
- Drug uptake [32]: 4.14 % ID/g
- Drug uptake [33]: 4.37 % ID/g
- Drug uptake [34]: 1.42 %ID
- Drug uptake [35]: 4.26 % ID/g
- Drug uptake [36]: 1.82 % ID/g
- Drug uptake [37]: 2.19 % ID/g
- Drug uptake [38]: 13.1 % ID/g
- Drug uptake [39]: 5.08 % ID/g
- Drug uptake [40]: 14.4 % ID/g
- Drug uptake [41]: 2.71 % ID/g
- Drug uptake [42]: 2.87 % ID/g
- Drug uptake [43]: 3.05 % ID/g
- Drug uptake [44]: 3.36 % ID/g
- Drug uptake [45]: 2.69 %ID
- Drug uptake [46]: 3.47 % ID/g
- Drug uptake [47]: 1.82 % ID/g
- Drug uptake [48]: 2.68 % ID/g
- Drug uptake [49]: 9.32 % ID/g
- Drug uptake [50]: 4 % ID/g
- Drug uptake [51]: 22.9 % ID/g
- Drug uptake [52]: 2.14 % ID/g
- Drug uptake [53]: 2.18 % ID/g
- Drug uptake [54]: 2.62 % ID/g
- Drug uptake [55]: 3.59 % ID/g
- Drug uptake [56]: 3.37 %ID
- Drug uptake [2]: 2.53 % ID/g
- Drug uptake [57]: 1.92 % ID/g
- logP at 10 min [3]: 2.05
